Test results: patent US7906507B2, “Oxadiazoanthracene compounds for the treatment of diabetes” (TransTech Pharma, Inc., priority 2008, dated 2011)

Biological target: T1, cloned human GLP-1 receptor (Homo sapiens, UniProt P43220)
T1 construct: expressed in transfected cells; host or cells: CHO or HEK-293 cells
Experiment: Functional cell-based assay: cAMP functional assay
Settings: for Emax: 0.5 h, percentage relative to maximal GLP-1-induced cAMP accumulation, na = not active in the assay, read-out: % activation
Protocol: Following overnight incubation of cells, media was removed, and compounds (at concentrations ranging from 0.0001 to 100 μM) were added to monolayer cells in Iscove's modified dulbecco's medium (IMDM), 100 μM RO 20-1724 PDE inhibitor, 0.1% BSA, 2% DMSO in a final volume of 100 μL, and incubated for 30 min at 37° C. 95% O2, 5% CO2 in a humidified incubator. cAMP was quantitated using a homogenous time-resolved fluorescence detection system (cAMP dynamic, CIS bio International).

T1 sequence (P43220 24-463): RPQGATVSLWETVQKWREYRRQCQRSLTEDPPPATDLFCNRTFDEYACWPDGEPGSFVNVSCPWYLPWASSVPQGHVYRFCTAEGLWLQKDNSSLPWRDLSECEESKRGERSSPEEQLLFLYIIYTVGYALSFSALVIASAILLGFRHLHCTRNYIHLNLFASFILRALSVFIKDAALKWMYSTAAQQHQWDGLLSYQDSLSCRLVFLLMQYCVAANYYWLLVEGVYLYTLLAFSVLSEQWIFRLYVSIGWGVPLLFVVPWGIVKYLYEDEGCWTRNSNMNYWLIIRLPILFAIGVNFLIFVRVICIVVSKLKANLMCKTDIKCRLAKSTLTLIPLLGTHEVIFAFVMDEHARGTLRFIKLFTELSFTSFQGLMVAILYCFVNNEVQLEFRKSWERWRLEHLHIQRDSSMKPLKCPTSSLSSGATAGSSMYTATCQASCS

SMILES	EC50 [nM]	Emax [%]
COc1ccc(C(=O)N2Cc3cc4c(cc3C[C@H]2C(=O)N[C@@H](Cc2ccc(-c3ccc(C#N)cc3)cc2)C(=O)O)NC(=O)C(c2ccc(OCc3ccc(Cl)c(Cl)c3)cc2)O4)cc1 (stereo partly drawn) [Example 23, (S)-3-(4′-Cyano-biphenyl-4-yl)-2-{[(S)-3-[4-(3,4-dichloro-benzyloxy)-phenyl]-6-(4-methoxy-benzoyl)-2-oxo-2,3,5,6,7,8-hexahydro-1H-4-oxa-1,6-diaza-anthracene-7-carbonyl]-amino}-propionic acid]	1280	65.5
N#Cc1ccc(-c2ccc(C[C@H](NC(=O)[C@@H]3Cc4cc5c(cc4CN3CCc3ccccc3)OC(c3ccc(OCc4ccc(Cl)c(Cl)c4)cc3)C(=O)N5)C(=O)O)cc2)cc1 (stereo partly drawn) [Example 35, (S)-3-(4′-Cyano-biphenyl-4-yl)-2-({(S)-3-[4-(3,4-dichloro-benzyloxy)-phenyl]-2-oxo-6-phenethyl-2,3,5,6,7,8-hexahydro-1H-4-oxa-1,6-diaza-anthracene-7-carbonyl}-amino)-propionic acid]	1200	16
N#Cc1ccc(-c2ccc(C[C@H](NC(=O)[C@@H]3Cc4cc5c(cc4CN3Cc3cccs3)OC(c3ccc(OCc4ccc(Cl)c(Cl)c4)cc3)C(=O)N5)C(=O)O)cc2)cc1 (stereo partly drawn) [Example 40]	1200	34
CC(C)C(=O)N1Cc2cc3c(cc2C[C@H]1C(=O)N[C@@H](Cc1ccc(-c2ccc(C#N)cc2)cc1)C(=O)O)NC(=O)C(c1ccc(OCc2ccc(Cl)c(Cl)c2)cc1)O3 (stereo partly drawn) [Example 13, (S)-3-(4′-Cyano-biphenyl-4-yl)-2-({(S)-3-[4-(3,4-dichloro-benzyloxy)-phenyl]-6-isobutyryl-2-oxo-2,3,5,6,7,8-hexahydro-1H-4-oxa-1,6-diaza-anthracene-7-carbonyl}-amino)-propionic acid]	1210	59
O=C1Nc2cc3c(cc2OC1c1ccc(OCc2ccc(Cl)c(Cl)c2)cc1)CN(C(=O)c1ccccc1)[C@H](C(=O)N[C@@H](Cc1ccc(Oc2ccncc2)cc1)C(=O)O)C3 (stereo partly drawn) [Example 99, (S)-2-({(S)-6-Benzoyl-3-[4-(3,4-dichloro-benzyloxy)-phenyl]-2-oxo-2,3,5,6,7,8-hexahydro-1H-4-oxa-1,6-diaza-anthracene-7-carbonyl}-amino)-3-[4-(pyridin-4-yloxy)-phenyl]-propionic acid]	1000	28
CCC(c1ccccc1)N1Cc2cc3c(cc2C[C@H]1C(=O)N[C@@H](Cc1ccc(-c2ccc(C#N)cc2)cc1)C(=O)O)N(C)C(=O)C(c1ccc(OCc2ccc(Cl)c(Cl)c2)cc1)O3 (stereo partly drawn) [Example 70, (S)-3-(4′-Cyano-biphenyl-4-yl)-2-{[(S)-3-[4-(3,4-dichloro-benzyloxy)-phenyl]-1-methyl-2-oxo-6-(1-phenyl-propyl)-2,3,5,6,7,8-hexahydro-1H-4-oxa-1,6-diaza-anthracene-7-carbonyl]-amino}-propionic acid]	988	6.9
N#Cc1ccc(-c2ccc(C[C@H](NC(=O)[C@@H]3Cc4cc5c(cc4CN3CC#Cc3ncccn3)OC(c3ccc(OCc4ccc(Cl)c(Cl)c4)cc3)C(=O)N5)C(=O)O)cc2)cc1 (stereo partly drawn) [Example 55, (S)-3-(4′-Cyano-biphenyl-4-yl)-2-{[(S)-3-[4-(3,4-dichloro-benzyloxy)-phenyl]-2-oxo-6-(3-pyrimidin-2-yl-prop-2-ynyl)-2,3,5,6,7,8-hexahydro-1H-4-oxa-1,6-diaza-anthracene-7-carbonyl]-amino}-propionic acid]	216	49.4
N#Cc1ccc(-c2ccc(C[C@H](NC(=O)[C@@H]3Cc4cc5c(cc4CN3Cc3ncc[nH]3)OC(c3ccc(OCc4ccc(Cl)c(Cl)c4)cc3)C(=O)N5)C(=O)O)cc2)cc1 (stereo partly drawn) [Example 47, (S)-3-(4′-Cyano-biphenyl-4-yl)-2-{[(S)-3-[4-(3,4-dichloro-benzyloxy)-phenyl]-6-(1H-imidazol-2-ylmethyl)-2-oxo-2,3,5,6,7,8-hexahydro-1H-4-oxa-1,6-diaza-anthracene-7-carbonyl]-amino}-propionic acid]	1200	29
N#Cc1ccc(-c2ccc(C[C@H](NC(=O)[C@@H]3Cc4cc5c(cc4CN3C(=O)c3ccccc3)OC(c3ccc(OCc4cccc(Cl)c4)cc3)C(=O)N5)C(=O)O)cc2)cc1 (stereo partly drawn) [Example 59, (S)-2-({(S)-6-Benzoyl-3-[4-(3-chloro-benzyloxy)-phenyl]-2-oxo-2,3,5,6,7,8-hexahydro-1H-4-oxa-1,6-diaza-anthracene-7-carbonyl}-amino)-3-(4′-cyano-biphenyl-4-yl)-propionic acid]	750	52
CC[C@@H](c1ccccc1)N1Cc2cc3c(cc2C[C@H]1C(=O)N[C@@](C)(Cc1ccc(-c2ccc(C#N)cc2)cc1)C(=O)O)N(C)C(=O)C(c1ccc(OCc2ccc(Cl)c(Cl)c2)cc1)O3 (stereo in doubt) [Example 97, (S)-3-(4′-Cyano-biphenyl-4-yl)-2-{[(S)-3-[4-(3,4-dichloro-benzyloxy)-phenyl]-1-methyl-2-oxo-6-((S)-1-phenyl-propyl)-2,3,5,6,7,8-hexahydro-1H-4-oxa-1,6-diaza-anthracene-7-carbonyl]-amino}-2-methyl-propionic acid]	38.2	38
N#Cc1ccc(-c2ccc(C[C@H](NC(=O)[C@@H]3Cc4cc5c(cc4CN3C(=O)[C@@H]3CCCO3)OC(c3ccc(OCc4ccc(Cl)c(Cl)c4)cc3)C(=O)N5)C(=O)O)cc2)cc1 (stereo partly drawn) [Example 5, (S)-3-(4′-Cyano-biphenyl-4-yl)-2-{[(S)-3-[4-(3,4-dichloro-benzyloxy)-phenyl]-2-oxo-6-((S)-tetrahydro-furan-2-carbonyl)-2,3,5,6,7,8-hexahydro-1H-4-oxa-1,6-diaza-anthracene-7-carbonyl]-amino}-propionic acid]	30000	18
CC[C@@H](c1ccccc1)N1Cc2cc3c(cc2C[C@H]1C(=O)N[C@@H](Cc1ccc(-c2ccc(C#N)cc2)cc1)C(=O)O)N(C)C(=O)[C@H](c1ccc(OCc2ccc(Cl)c(Cl)c2)cc1)O3 [Example 87, (S)-3-(4′-Cyano-biphenyl-4-yl)-2-{[(3S,7S)-3-[4-(3,4-dichloro-benzyloxy)-phenyl]-1-methyl-2-oxo-6-((S)-1-phenyl-propyl)-2,3,5,6,7,8-hexahydro-1H-4-oxa-1,6-diaza-anthracene-7-carbonyl]-amino}-propionic acid]	64.5	82
CC[C@@H](c1ccccc1)N1Cc2cc3c(cc2C[C@H]1C(=O)N[C@@H](Cc1ccc(-c2ccc(Cl)cc2)cc1)C(=O)O)N(C)C(=O)[C@H](c1ccc(OCc2ccc(Cl)c(Cl)c2)cc1)O3 [Example 93, (S)-3-(4′-Chloro-biphenyl-4-yl)-2-{[(3S,7S)-3-[4-(3,4-dichloro-benzyloxy)-phenyl]-1-methyl-2-oxo-6-((S)-1-phenyl-propyl)-2,3,5,6,7,8-hexahydro-1H-4-oxa-1,6-diaza-anthracene-7-carbonyl]-amino}-propionic acid]	138	31
N#Cc1ccc(-c2ccc(C[C@H](NC(=O)[C@@H]3Cc4cc5c(cc4CN3C(=O)OC3CCOCC3)OC(c3ccc(OCc4ccc(Cl)c(Cl)c4)cc3)C(=O)N5)C(=O)O)cc2)cc1 (stereo partly drawn) [Example 11, (S)-7-[(S)-1-Carboxy-2-(4′-cyano-biphenyl-4-yl)-ethylcarbamoyl]-3-[4-(3,4-dichloro-benzyloxy)-phenyl]-2-oxo-1,2,3,5,7,8-hexahydro-4-oxa-1,6-diaza-anthracene-6-carboxylic acid tetrahydro-pyran-4-yl ester]	606	71
N#Cc1ccc(-c2ccc(C[C@H](NC(=O)[C@@H]3Cc4cc5c(cc4CN3Cc3ccccc3C#N)OC(c3ccc(OCc4ccc(Cl)c(Cl)c4)cc3)C(=O)N5)C(=O)O)cc2)cc1 (stereo partly drawn) [Example 53, (S)-2-({(S)-6-(2-Cyano-benzyl)-3-[4-(3,4-dichloro-benzyloxy)-phenyl]-2-oxo-2,3,5,6,7,8-hexahydro-1H-4-oxa-1,6-diaza-anthracene-7-carbonyl}-amino)-3-(4′-cyano-biphenyl-4-yl)-propionic acid]	1040	52.5
N#Cc1ccc(-c2ccc(C[C@H](NC(=O)[C@@H]3Cc4cc5c(cc4CN3CC#Cc3ccsc3)OC(c3ccc(OCc4ccc(Cl)c(Cl)c4)cc3)C(=O)N5)C(=O)O)cc2)cc1 (stereo partly drawn) [Example 56, (S)-3-(4′-Cyano-biphenyl-4-yl)-2-{[(S)-3-[4-(3,4-dichloro-benzyloxy)-phenyl]-2-oxo-6-(3-thiophen-3-yl-prop-2-ynyl)-2,3,5,6,7,8-hexahydro-1H-4-oxa-1,6-diaza-anthracene-7-carbonyl]-amino}-propionic acid]	370	40.1
N#Cc1ccc(-c2ccc(C[C@H](NC(=O)[C@@H]3Cc4cc5c(cc4CN3Cc3nccs3)OC(c3ccc(OCc4cccc(Cl)c4)cc3)C(=O)N5)C(=O)O)cc2)cc1 (stereo partly drawn) [Example 67, (S)-2-({(S)-3-[4-(3-Chloro-benzyloxy)-phenyl]-2-oxo-6-thiazol-2-ylmethyl-2,3,5,6,7,8-hexahydro-1H-4-oxa-1,6-diaza-anthracene-7-carbonyl}-amino)-3-(4′-cyano-biphenyl-4-yl)-propionic acid]	1150	55
Cc1ccccc1CN1Cc2cc3c(cc2C[C@H]1C(=O)N[C@@H](Cc1ccc(-c2ccc(C#N)cc2)cc1)C(=O)O)NC(=O)C(c1ccc(OCc2ccc(Cl)c(Cl)c2)cc1)O3 (stereo partly drawn) [Example 38, (S)-3-(4′-Cyano-biphenyl-4-yl)-2-{[(S)-3-[4-(3,4-dichloro-benzyloxy)-phenyl]-6-(2-methyl-benzyl)-2-oxo-2,3,5,6,7,8-hexahydro-1H-4-oxa-1,6-diaza-anthracene-7-carbonyl]-amino}-propionic acid]	710	32
